One series relates to Candida albicans DUC1001. Briefly: Antifungal activity in vitro by counting the number of the living cells. The conditions noted are these: just after addition at 25, 40 and 80 µg/ml. Type of series: cell-based.
The subject of another series is ddy-N mice. Briefly: Acute toxicity test, single intravenous injection. The format is in vivo. Here is the method:
In the next test, mice of the same kind as mentioned above were used. Each of HUT57A and HUT57B was dissolved in DMSO (dimethylsulfoxide)-castor oil-5 % Glc solution, and the resulting solution was injected to the caudal vein of each of the five male mice once or plural times. For the single injection, the solution was administered to the mice each in an amount of 200 mg per kg of the body weight; and for the plural injections, it was administered to them 14 times each in an amount of 30 mg/kg/day.

Series [1] deals with Trichosporon cutaneum IFO1500. Particulars: pH 6.8.
Series [2] has as its system Candida albicans IFM4009, Aspergillus fumigatus Tsukuba No. 12, Cryptococcus neoformans 145A. Briefly: Effectiveness in systemically fungi-infected mice. The format is in vivo. The conditions noted are these: mice intravenously inoculated with clinically isolated strains. An excerpt:
As one example of the test of testing the effectiveness of the active substances, HUT57A or HUT57B may be administered to systemically fungi-infected mice, to which various clinically isolated strains (Candida albicans IFM4009, Aspergillus fumigatus Tsukuba No. 12, Cryptococcus neoformans 145A) were intravenously inoculated, whereby the effectiveness of administered the substance may be examined.

For series [3], the system named is Trichophyton rubrum IFO9185. The conditions noted are these: pH 6.8.
Series [4] has as its system Diaporothe citiri IFO9170. The conditions noted are these: pH 6.8.
For series [5], the system named is Aspergillus fumigatus IAM2612. The conditions noted are these: IAM2612, pH 6.8.
Series [6] relates to Aspergillus flavas IAM2044. The conditions noted are these: pH 6.8.
The test system of series [7] is Fusarium solani ATCC11712. Particulars: ATCC11712, pH 6.8.
The subject of series [8] is Fusarium oxysporum HUT5015. Particulars: pH 6.8.
Series [9] relates to Candida tropicalis IFO3256. Particulars: IFO3256, pH 6.8.
Series [10] concerns Mucor guilliermondii IFO9403. Particulars: pH 6.8.
Series [11] concerns Trichophyton mentagrophytes IFO6124. Particulars: pH 6.8.
Series [12] concerns Botrytis cinerea IFO31831. The conditions noted are these: pH 6.8.
The test system of series [13] is Cryptococcus neoformans IFO1320. The conditions noted are these: IFO1320, pH 6.8.

SMILES strings stand for the structures. Converted amounts (≈) assume the structure as drawn. Numbered stars: 1 amine (or outer) side, 2 acyl side, 3 side chain; on linkers, the order of the positions; unused ones are H or OH. Square brackets hold non-standard residues; d marks the D form. Peptide text beside a SMILES is read from it. Gly(Dodecyl) = CCCCCCCCCCCC[C@H](N)C(=O)O; X1 = CCCCCCCCCCCCC[C@H](N[*:1])C(=O)[*:2]

As for `CCCCCCCCCCCC[C@@H]1NC(=O)[C@H](CCC(N)=O)NC(=O)[C@H](CC(N)=O)NC(=O)[C@H](Cc2ccc(O)cc2)NC(=O)[C@H](CC(N)=O)NC(=O)[C@@H]2CCCN2C(=O)[C@H](CO)NC(=O)[C@H](CC(N)=O)NC1=O` [HUT57A, X-Asn-Ser-Pro-Asn-Tyr-Asn-Gln] (cyclo([Gly(Dodecyl)]NSPNYNQ)), the “number of the living cells” value with Candida albicans DUC1001 is “noticeably decreased”. The “Hemolyzation Activity” value in the series “Hemolyzation Activity” is “-”. For the same molecule, in the series on ddy-N mice, the “LD₅₀ by single intravenous injection” value is at least 200 mg/kg. Further, the MIC in [1] worked out at 23.0 µg/mL (≈ 22 µM); in series [3], 6.2 µg/mL (≈ 5.94 µM); in series [4], 1.0 µg/mL (≈ 0.959 µM); in series [5], 1.3 µg/mL (≈ 1.25 µM); in series [6] it was 2.3 µg/mL (≈ 2.2 µM); in [7], 2.8 µg/mL (≈ 2.68 µM). The MIC was 1.2 µg/mL (≈ 1.15 µM) in series [8]; 11.4 µg/mL (≈ 10.9 µM) in series [9]; 1.2 µg/mL (≈ 1.15 µM) in [10]; 10.0 µg/mL (≈ 9.59 µM) in series [11]; 2.2 µg/mL (≈ 2.11 µM) in [12]; 6.0 µg/mL (≈ 5.75 µM) in series [13]. The “effectiveness to systemic mycosis in mice” value in [2] is reported as “effective”.

Turning to `CCCCCCCCCCCCC[C@@H]1NC(=O)[C@H](CCC(N)=O)NC(=O)[C@H](CC(N)=O)NC(=O)[C@H](Cc2ccc(O)cc2)NC(=O)[C@H](CC(N)=O)NC(=O)[C@@H]2CCCN2C(=O)[C@H](CO)NC(=O)[C@H](CC(N)=O)NC1=O` [HUT57B, X-Asn-Ser-Pro-Asn-Tyr-Asn-Gln] (cyclo([X1]NSPNYNQ)), the “number of the living cells” value with Candida albicans DUC1001 is “noticeably decreased”. Besides, the “Hemolyzation Activity” value in “Hemolyzation Activity” was “-”. The “LD₅₀ by single intravenous injection” value in the series with ddy-N mice is at least 200 mg/kg. Besides, the MIC in series [1] worked out at 23.0 µg/mL (≈ 21.8 µM); in [3], 5.4 µg/mL (≈ 5.11 µM); in series [4], 1.0 µg/mL (≈ 0.946 µM); in series [5] it was 1.3 µg/mL (≈ 1.23 µM); in [6], 2.4 µg/mL (≈ 2.27 µM); in series [7] it was 2.8 µg/mL (≈ 2.65 µM). Besides, the MIC in series [8] was 1.2 µg/mL (≈ 1.14 µM); in series [9], 11.2 µg/mL (≈ 10.6 µM); in [10] it was 1.2 µg/mL (≈ 1.14 µM); in series [11], 10.0 µg/mL (≈ 9.46 µM); in [12] it was 2.1 µg/mL (≈ 1.99 µM); in series [13] it was 5.2 µg/mL (≈ 4.92 µM). The “effectiveness to systemic mycosis in mice” value in [2] was “effective”.

Usually MIC stands for the lowest concentration that inhibits growth of the organism. Low values mean greater potency, high ones weaker potency.
